This passage reports EC50, IC50 and AC50 results from ChEMBL document CHEMBL1201862, “PubChem BioAssay data set” (2004).

Activity calls are given as the source filed them.

The target of test [1] is T1, Oxysterols receptor LXR-beta (Homo sapiens, UniProt P55055).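 Also: agonist activity at LXR measured by a cell-based luminescence readout across a dose range, run as a counterscreen for daf-12 agonists; HEK293 cells with Gal4-LXR fusion and GAL4-driven luciferase reporter; potency for activation of Gal4-LXR reporter so compounds are agonists.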
T1 sequence (P55055 whole entry): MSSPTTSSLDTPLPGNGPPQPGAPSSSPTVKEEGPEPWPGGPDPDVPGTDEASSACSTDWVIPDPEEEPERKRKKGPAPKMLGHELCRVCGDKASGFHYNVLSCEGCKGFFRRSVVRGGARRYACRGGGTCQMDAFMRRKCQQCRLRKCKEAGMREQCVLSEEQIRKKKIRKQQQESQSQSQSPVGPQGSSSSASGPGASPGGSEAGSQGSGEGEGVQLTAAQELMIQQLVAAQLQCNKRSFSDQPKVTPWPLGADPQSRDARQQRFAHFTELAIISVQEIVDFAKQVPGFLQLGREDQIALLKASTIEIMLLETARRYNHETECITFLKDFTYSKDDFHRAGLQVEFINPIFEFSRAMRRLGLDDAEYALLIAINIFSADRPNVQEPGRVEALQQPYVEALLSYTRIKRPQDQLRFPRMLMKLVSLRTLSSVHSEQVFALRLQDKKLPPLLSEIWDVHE
The test is classed as functional, cell-based.

Test [2] has as its target T2, Fructose-bisphosphate aldolase (Mycobacterium tuberculosis, UniProt P9WQA3).
T2 sequence (P9WQA3 whole entry): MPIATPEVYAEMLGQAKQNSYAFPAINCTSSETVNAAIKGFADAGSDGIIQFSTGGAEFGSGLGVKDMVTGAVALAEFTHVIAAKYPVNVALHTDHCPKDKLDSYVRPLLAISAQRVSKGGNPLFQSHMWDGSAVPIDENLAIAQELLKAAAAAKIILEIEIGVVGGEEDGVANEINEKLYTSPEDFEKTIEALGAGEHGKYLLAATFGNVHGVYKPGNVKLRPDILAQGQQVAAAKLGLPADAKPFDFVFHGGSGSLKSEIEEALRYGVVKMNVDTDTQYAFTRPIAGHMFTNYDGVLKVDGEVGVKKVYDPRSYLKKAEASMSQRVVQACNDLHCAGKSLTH
The test can be described thus: Fluorescence-based biochemical high throughput dose response assay for inhibitors of the fructose-bisphosphate aldolase (FBA) of M. tuberculosis. Format: functional.

In test [3] the target is T3, Beta-lactamase (Pseudomonas aeruginosa, UniProt Q79MP6). Nature of the test: […] counterscreen for selective VIM-2 inhibitors: dose response biochemical high throughput screening assay to identify inhibitors of IMP-1 metallo-beta-lactamase.
The target of test [4] is Beta-lactamase (Salmonella choleraesuis (strain SC-B67), UniProt Q5J463). Nature of the test: Epi-absorbance-based counterscreen for selective VIM-2 inhibitors: dose response biochemical high throughput screening assay to identify inhibitors of TEM-1 serine-beta-lactamase. (In general: A counterscreen serves to expose hits that act by an unwanted route or on another target.)

The target in test [5] is T3, Beta-lactamase. Nature of the test: inhibition of IMP-1 beta-lactamase activity – biochemical, epi-absorbance, selectivity assay for VIM-2 inhibitor project, dose response (AID 1920).
In test [6] the target is T4, COUP transcription factor 2 (Homo sapiens, UniProt P24468).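 Also: HEK293 cells transiently cotransfected with COUP-TFII expression vector and reporter; luciferase reporter luminescence driven by COUP-TFII from the pX2-168 reporter plasmid.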
T4 sequence (P24468 whole entry): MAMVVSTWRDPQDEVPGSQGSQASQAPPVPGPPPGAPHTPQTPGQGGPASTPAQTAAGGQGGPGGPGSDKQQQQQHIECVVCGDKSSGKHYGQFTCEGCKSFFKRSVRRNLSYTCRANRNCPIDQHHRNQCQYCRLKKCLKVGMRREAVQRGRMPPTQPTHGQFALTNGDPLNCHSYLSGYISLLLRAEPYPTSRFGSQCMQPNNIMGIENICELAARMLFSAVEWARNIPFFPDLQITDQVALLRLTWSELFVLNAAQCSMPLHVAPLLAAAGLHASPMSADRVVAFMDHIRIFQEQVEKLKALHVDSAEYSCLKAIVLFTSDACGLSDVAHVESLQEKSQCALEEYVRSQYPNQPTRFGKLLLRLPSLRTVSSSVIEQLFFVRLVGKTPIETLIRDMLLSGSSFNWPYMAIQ
Nature of the test: Luminescence-based cell-based high throughput dose response assay to identify inhibitors of COUP-TFII (NR2F2). The test is classed as functional.

Test [7] is described as follows: cells. The test is classed as functional, cell-based.
Test [8] has as its target T5, Nuclear receptor subfamily 0 group B member 1 (Homo sapiens, UniProt P51843).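 Also: HEK293T cells transfected with SF-1 and DAX-1 plus StAR promoter luciferase reporter.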
T5 sequence (P51843 whole entry): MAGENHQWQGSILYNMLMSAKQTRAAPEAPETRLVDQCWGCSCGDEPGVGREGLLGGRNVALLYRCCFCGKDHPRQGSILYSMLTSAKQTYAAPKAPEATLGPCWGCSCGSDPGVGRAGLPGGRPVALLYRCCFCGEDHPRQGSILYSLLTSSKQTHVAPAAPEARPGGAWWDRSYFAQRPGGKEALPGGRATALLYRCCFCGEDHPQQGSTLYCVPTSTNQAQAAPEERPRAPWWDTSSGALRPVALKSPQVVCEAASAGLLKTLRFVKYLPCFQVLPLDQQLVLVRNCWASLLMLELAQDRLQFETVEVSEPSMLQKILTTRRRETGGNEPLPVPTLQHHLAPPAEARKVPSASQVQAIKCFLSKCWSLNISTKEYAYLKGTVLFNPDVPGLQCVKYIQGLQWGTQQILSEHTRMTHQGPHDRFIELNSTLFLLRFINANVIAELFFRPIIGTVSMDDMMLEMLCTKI
The test is classed as functional, cell-based.

The target of test [9] is Beta-galactosidase (Escherichia coli, UniProt Q8VNN2). Nature of the test: detection-enzyme interference by beta-gal modulators – biochemical, E. coli enzyme, set 3, artefact control for CCR6 antagonist project, dose response (AID 504712). Format: functional.
A short description of test [10]: Luminescence Cell-Based Dose Confirmation HTS to Identify Activators of 5'UTR Stem-Loop Driven Alpha-Synuclein mRNA Translation in H4 Neuroglioblastoma Cells. [Related pubchem assays: 1829 (Project Summary), 1814 (Primary HTS)]. The test is classed as functional.
Test [11] can be described thus: Luminescence Cell-Based Dose Response HTS to Identify Activators of Luciferase Translation or Activity in H4 […] Cells. [Related pubchem assays: 1829 (Project Summary), 1814 (Primary HTS)]. The test is classed as functional.
Test [12] relates to H4. The test can be described thus: Luminescence Cell-Based Dose Response HTS to Identify Activators of 5'UTR Stem-Loop Driven Prion Protein mRNA Translation in H4 Neuroglioblastoma Cells. [Related pubchem assays: 1829 (Project Summary), 1814 (Primary HTS)]. Format: functional. Particulars: Homo sapiens.
Test [13] in a line: cells. The test is classed as functional, cell-based. The source holds these as a separate data set.
Test [14] can be described thus: cells. The test is classed as functional, cell-based. The source holds these as a separate data set.
The nature of test [15]: HIV-1 AD8 envelope cell-cell fusion blockers – cherry-pick, dose response (AID 652062).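 Also: luciferase signal from cell-cell fusion driven by HIV-1 clade B AD8 Env; potency is for inhibitors of fusion seen as a drop in luminescence.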 Format: functional, cell-based.
A short description of test [16]: general mammalian cell viability loss – inhibitor set, cherry-pick, set 2, cytotoxicity control for miR-122 modulator project, dose response (AID 720697). Format: functional, cell-based.
Test [17] deals with Jurkat. Nature of the test: blockers of NF-kB activation in T cells – Jurkat, luciferase reporter, luminescence, B- and T-cell, dose response (AID 489004).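 Also: NF-kB luciferase reporter Jurkat cells stimulated with PMA plus ionomycin.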 The test is classed as functional, cell-based. Particulars: Homo sapiens. (In a reporter assay the amount or activity of a reporter protein is the signal.)
Test [18] can be described thus: HEK-293T viability loss, compound-treated – cell-based, uHTS hits, cytotoxicity control for B/T-cell NF-kB inhibitor project, dose response (AID 489019).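 Also: IC50 reflects cytotoxicity as loss of cell viability.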 The test is classed as functional.
Test [19] has as its target T6, Ubiquitin-conjugating enzyme E2 N (Homo sapiens, UniProt P61088).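 Also: Dose-response confirmation in a TR-FRET assay detecting UBC13-driven polyubiquitin chain formation, inhibition measured.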
T6 sequence (P61088 whole entry): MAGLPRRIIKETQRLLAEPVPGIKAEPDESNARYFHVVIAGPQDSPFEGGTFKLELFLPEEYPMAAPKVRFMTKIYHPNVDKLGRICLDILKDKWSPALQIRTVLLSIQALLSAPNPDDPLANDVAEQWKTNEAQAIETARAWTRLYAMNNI
Format: functional.

Test [20] concerns the target T7, Probable nicotinate-nucleotide adenylyltransferase (Staphylococcus aureus (strain N315), UniProt P65502). The test is classed as functional, Staphylococcus aureus subsp. aureus N315.
The target in test [21] is T8, Streptokinase A (Streptococcus pyogenes serotype M1, UniProt P10520).
T8 sequence (P10520 whole entry): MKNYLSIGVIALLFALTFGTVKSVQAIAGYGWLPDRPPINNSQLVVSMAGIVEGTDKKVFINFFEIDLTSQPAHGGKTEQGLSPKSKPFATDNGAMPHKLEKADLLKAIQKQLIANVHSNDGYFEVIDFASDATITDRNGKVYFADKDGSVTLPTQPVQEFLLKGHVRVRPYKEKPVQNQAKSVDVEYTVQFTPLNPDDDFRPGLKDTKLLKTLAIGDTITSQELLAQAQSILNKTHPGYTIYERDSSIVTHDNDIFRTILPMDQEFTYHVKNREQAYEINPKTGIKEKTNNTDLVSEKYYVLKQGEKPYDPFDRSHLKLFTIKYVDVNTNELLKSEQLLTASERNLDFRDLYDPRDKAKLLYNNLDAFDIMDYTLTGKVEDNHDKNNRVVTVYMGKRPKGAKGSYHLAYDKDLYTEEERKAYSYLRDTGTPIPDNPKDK
Nature of the test: viability-normalized secreted streptokinase activity reduction – plasminogen activation absorbance, OD405, dose response (AID 1914).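 Also: secreted streptokinase activity via plasminogen activation per viability signal from cell pellet.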 Format: functional, Streptococcus pyogenes M1 GAS.

Test [22] deals with T7, Probable nicotinate-nucleotide adenylyltransferase. The test is classed as functional, Staphylococcus aureus subsp. aureus N315. The following applies: read-out: IC50_Mean.
Test [23] deals with Streptococcus sp. 'group A'. The test can be described thus: Streptococcus pyogenes SK(-)GAS viability under kanamycin – luminescence, BacTiterGlo, confirmation, counter-screen for streptokinase expression inhibitor project, dose response (AID 1900). The test is classed as functional, organism-based.
Test [24] deals with Streptococcus. The test can be described thus: GAS UMAA2166 growth inhibition – luminescence, BacTiterGlo, counter-screen for streptokinase expression inhibitor project, dose response (AID 1915).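 Also: potency for reduction of bacterial viability or growth.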 Format: functional, organism-based.
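For IC50 Mean in this document: confirmatory dose-response retesting of NadD inhibitor hits first found in an ultra-high-throughput screen.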

Sequence of Beta-lactamase (Salmonella choleraesuis (strain SC-B67), UniProt Q5J463) (Q5J463 whole entry): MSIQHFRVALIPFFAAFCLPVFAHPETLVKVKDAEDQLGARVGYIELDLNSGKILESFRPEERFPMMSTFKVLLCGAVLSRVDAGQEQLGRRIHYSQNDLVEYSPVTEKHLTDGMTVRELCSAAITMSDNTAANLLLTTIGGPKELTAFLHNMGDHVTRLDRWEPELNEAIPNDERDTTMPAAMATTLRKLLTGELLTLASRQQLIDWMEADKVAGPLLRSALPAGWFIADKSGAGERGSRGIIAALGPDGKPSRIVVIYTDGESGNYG
T3 sequence (Q79MP6 whole entry): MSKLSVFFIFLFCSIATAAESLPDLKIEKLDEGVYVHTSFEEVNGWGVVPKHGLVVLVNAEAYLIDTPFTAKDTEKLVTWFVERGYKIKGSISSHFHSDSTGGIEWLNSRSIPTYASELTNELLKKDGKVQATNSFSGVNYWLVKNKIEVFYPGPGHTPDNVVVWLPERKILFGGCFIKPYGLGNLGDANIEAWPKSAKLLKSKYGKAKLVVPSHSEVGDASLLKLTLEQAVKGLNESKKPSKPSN
T7 sequence (P65502 whole entry): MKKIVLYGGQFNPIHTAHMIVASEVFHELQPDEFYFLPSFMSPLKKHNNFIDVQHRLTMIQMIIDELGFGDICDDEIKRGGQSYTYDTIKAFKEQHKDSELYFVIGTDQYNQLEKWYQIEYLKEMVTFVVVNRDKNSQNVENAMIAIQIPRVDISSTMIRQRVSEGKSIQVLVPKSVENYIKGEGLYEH
Sequence of Beta-galactosidase (Q8VNN2 whole entry): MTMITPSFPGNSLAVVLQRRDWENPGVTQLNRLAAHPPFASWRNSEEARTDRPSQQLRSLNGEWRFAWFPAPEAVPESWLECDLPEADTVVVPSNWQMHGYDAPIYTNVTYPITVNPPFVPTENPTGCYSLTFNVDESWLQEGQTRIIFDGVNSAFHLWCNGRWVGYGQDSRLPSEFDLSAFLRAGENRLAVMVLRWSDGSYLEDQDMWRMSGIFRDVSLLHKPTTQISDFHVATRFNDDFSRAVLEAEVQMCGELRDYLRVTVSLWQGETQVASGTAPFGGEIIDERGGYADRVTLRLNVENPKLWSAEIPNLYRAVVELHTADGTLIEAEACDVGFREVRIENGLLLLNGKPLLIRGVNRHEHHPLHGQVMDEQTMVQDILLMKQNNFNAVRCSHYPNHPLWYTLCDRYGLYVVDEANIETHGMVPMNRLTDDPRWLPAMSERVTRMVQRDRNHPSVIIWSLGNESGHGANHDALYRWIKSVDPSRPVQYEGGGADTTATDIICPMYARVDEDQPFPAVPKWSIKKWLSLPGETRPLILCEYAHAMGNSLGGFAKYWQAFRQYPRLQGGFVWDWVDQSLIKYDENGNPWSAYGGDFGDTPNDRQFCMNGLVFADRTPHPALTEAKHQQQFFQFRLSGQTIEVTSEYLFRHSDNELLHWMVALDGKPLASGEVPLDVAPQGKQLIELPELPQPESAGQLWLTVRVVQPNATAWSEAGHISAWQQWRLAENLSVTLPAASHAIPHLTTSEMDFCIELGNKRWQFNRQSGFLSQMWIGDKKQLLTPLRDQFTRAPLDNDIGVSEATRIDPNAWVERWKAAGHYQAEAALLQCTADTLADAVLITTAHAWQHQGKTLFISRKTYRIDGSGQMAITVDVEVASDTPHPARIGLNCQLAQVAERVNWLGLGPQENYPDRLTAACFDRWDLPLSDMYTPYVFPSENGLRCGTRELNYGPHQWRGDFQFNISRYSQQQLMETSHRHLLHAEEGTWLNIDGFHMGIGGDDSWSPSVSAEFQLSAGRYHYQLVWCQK

For the compound `O=c1c2ccccc2nnn1CSc1ccccc1F`, the EC50 in [1] is > 67.5 µM (inactive).

For `O=C(NCc1cccc(Cl)c1)C1=CC=CN2CCS(=O)(=O)N=C12`, the IC50 in test [2] was 2.61 µM (active).

Take `Cc1cccc(NC(=O)c2ccc3ccccc3n2)c1C`: the EC50 in test [1] is > 67.5 µM (inactive).

As for `CC(C)(C)c1ccc(-c2n[nH]c(=S)n2CCCN2CCOCC2)cc1`, the IC50 in [3], in [4] and in [5] was > 59.6 µM (inactive) each time.

`Cc1ccnc(NC(=O)/C=C/c2cccs2)c1`: the EC50 in test [1] was > 67.6 µM (inactive).

On to `COc1ccc(CCNC(=O)C(C)n2nc(C)c3c(C)n(-c4ccc(C)cc4)nc3c2=O)c(OC)c1` (stereo not given), for which, in test [6], the IC50 was 5.2 µM (active).

For the compound `COc1ccc2[nH]c(C(=O)O)c(CCN3C(=O)c4ccc(C(=O)O)cc4C3=O)c2c1`, the IC50 in [3], in test [4] and in test [5] was > 59.6 µM (inactive) throughout.

`Cc1ccc(NC(S)=NNC(=O)Nc2ccccc2)cc1`: the IC50 in [7] was > 67.6 µM (inactive); in test [8], > 67.6 µM (inactive); in test [9], > 66.6 µM (inactive).

As to `CCOc1ccc(-n2nc3ccc(N)cc3n2)cc1`, in test [2], the IC50 was 0.716 µM (active).

Turning to `Cc1ccc(C(=O)NNC(=O)c2ccc3c(c2)OCCO3)cc1`, the IC50 in [7] and in [8] was > 67.5 µM (inactive) in each case.

Take `O=C(NCCCn1ccnc1)c1cc(-c2cccs2)on1`: the half-maximal effective concentration (EC50) in test [10] was 12.4 µM (active); in test [11], 16.9 µM (active); in [1] it was > 67.5 µM (inactive); in test [12] it was 12.3 µM (active); in test [13], 13.2 µM (active); in test [14] it was > 350 µM (not active).

On to `CCCN1CCN(CCCNC(=O)c2ccc3c(c2)NC(=O)c2ccccc2S3)CC1`, for which the IC50 in test [7] and in test [8] was > 67.5 µM (inactive) in each case.

`COc1ccc(-c2cn3c(C)c(C(=O)Nc4cccc(NC(C)=O)c4)sc3n2)cc1`: the values for the AC50 in [15] and in [16] were 17 µM (active) and 6.44 µM (active), respectively.

Turning to `CC(C)(C)CC(=O)Nc1nnc(SCC(=O)NCc2cccs2)s1`, the IC50 in test [3], in [4] and in test [5] was > 59.6 µM (inactive) in each case.

Consider `Cn1cccc1-c1nc2ccccc2n1C`, for which the IC50 in test [2] was 3.08 µM (active).

In the case of `Cc1ccc(-c2csc(NC(=O)C3CCN(S(=O)(=O)c4cccs4)CC3)n2)cc1`, the values for the IC50 in [17], in [18] and in test [6] were 8.06 µM (active), > 80 µM (inactive) and 8.11 µM (active), respectively.

Consider `CC(C)Cn1c(=O)c(C(=O)Nc2ccccc2S(N)(=O)=O)c(O)c2ccccc21`, for which the figures for the IC50 in test [19], in test [20] and in test [22] were > 20 µM (inactive), 8.62 µM (active) and 61.2 µM (active), respectively. Besides, the figures for the EC50 in [21], in [23] and in test [24] were > 150 µM (not active), 6.34 µM (active) and 28.6 µM (active), respectively.

Regarding `Cc1c(C(=O)NCc2ccc(C(C)C)cc2)sc(=O)n1Cc1ccc(S(=O)(=O)N(C)C)cc1`, in test [6], the IC50 was 6.46 µM (active).

In the case of `Cc1ccc(-c2nc3ccc(Br)cn3c2Cc2ccccc2)cc1`, the IC50 in test [7] and in test [8] was > 67.6 µM (inactive) throughout.

In the case of `CC(C)NC(=O)N1C[C@@H]2[C@H](c3ccccc31)[C@@H](CO)N2C(=O)c1cccnc1`, the half-maximal activity concentration (AC50) in test [16] was 10.1 µM (active).

Regarding `COc1ccc(/C=C2\Oc3ccccc3C2=O)cc1` [4'-METHOXY-AURONE], the IC50 in test [2] is 0.912 µM (active).

A word on the EC50: it is the concentration at which the effect is half-maximal. The AC50 is the midpoint of the concentration-response curve, whichever way the signal moves.
